Assay results as given in BindingDB's records for doi:10.1021/jm00376a004 (1984).

Test: Compound was evaluated for average apparent binding constant (Kd ) using Scatchard analysis to dTMP synthetase enzyme from chick embryo

For `O=c1nc(NO)ccn1[C@H]1C[C@H](O)[C@@H](COP(=O)(O)O)O1` [Phosphoric acid mono-[3-hydroxy-5-(4-hydroxyamino-2-oxo-2H-pyrimidin-1-yl)-tetrahydro-furan-2-ylmethyl] ester], the Kd was 1000 nM.
